Data on 1 compound can be found in patent US20060128634A1, “Alpha, alpha-disubstituted benzylglycine derivatives as HIV protease inhibitors” (priority 2002, published 2006).

The test system of this experiment is HIV-1 (RF). Nature of the experiment: HIV RNA assay: microplate based compound evaluation in HIV-1 infected MT-2 cells. It is filed as cell-based. Conditions: Human immunodeficiency virus 1, MT2; HIV-1 (RF) infected MT-2 cells; value used to standardize the virus inoculum; read-out: IC90 (concentration of compound required to reduce the HIV RNA level by 90%). Here is the method:
Plasmid pDAB 72 containing both gag and pol sequences of BH10 (bp 113-1816) cloned into PTZ 19R was prepared according to Erickson-Vitanen et al. AIDS Research and Human Retroviruses 1989, 5, 577. The plasmid was linearized with Bam HI prior to the generation of in vitro RNA transcripts using the Riboprobe Gemini system II kit (Promega) with T7 RNA polymerase. Synthesized RNA was purified by treatment with RNase free DNAse (Promega), phenol-chloroform extraction, and ethanol precipitation. RNA transcripts were dissolved in water, and stored at −70EC. The concentration of RNA was determined from the A260.
Biotinylated capture probes were purified by HPLC after synthesis on an Applied Biosystems (Foster city, Calif.) DNA synthesizer by addition of biotin to the 5N terminal end of the oligonucleotide, using the biotin-phosphoramidite reagent of Cocuzza, Tet. Lett. 1989, 30, 6287. […]
MT-2 and MT-4 cells were maintained in RPMI 1640 supplemented with 5% fetal calf serum (FCS) for MT-2 cells or 10% FCS for MT-4 cells, 2 mM L-glutamine and 50 μg/mL gentamycin, all from Gibco. […] Infectious titers of HIV-1(RF) stocks were 1-3×10^7 PFU (plaque forming units)/mL as measured by plaque assay on MT-2 cells (see below). […]

Values after ≈ are worked out from the molar mass of the structure shown.

As for `Nc1ccn([C@H]2CC[C@@H](CO)O2)c(=O)n1` [ddC, dideoxycytidine], the IC90 was determined as 0.2 µg/mL (≈ 0.947 µM).
